Read-outs that look alike come from different tables or passages of the source.
How the values were obtained:
[1] = system: black bean aphid (Aphis fabae); assay: Myzus Test (Duration of Activity after Spraying); assay type: in vivo; conditions: 0.1% active compound, dipped bean shoots, time not stated, read-out: kill
Description: Myzus Test (Duration of Activity after Spraying)
(§1) Solvent: 7 parts by weight of dimethylformamide
(§2) Emulsifier: 1 part by weight of alkylaryl polyglycol ether
(§3) To produce a suitable preparation of active compound, 1 part by weight of active compound is mixed with the stated amount of solvent and the stated amount of emulsifier, and the concentrate is diluted with water to the desired concentration.
Bean shoots (Vicia faba) which are heavily infested by the black bean aphid (Aphis fabae) are treated by being dipped into the active compound preparation of the desired concentration.
After the desired period of time, the kill in % is determined. 100% means that all aphids have been killed, 0% means that none of the aphids have been killed.

[2] = system: larvae of the green rice leaf hopper (Nephotettix cincticeps); assay: Nephotettix Test; assay type: in vivo; conditions: 144 h, read-out: kill
Description: as §1, §2, §3
Rice seedlings (Oryzae sativa) are treated by being dipped into the active compound preparation of the desired concentration and are populated with larvae of the green rice leaf hopper (Nephotettix cincticeps) while the seedlings are still moist.
After the desired period of time, the kill in % is determined. 100% means that all the leaf hoppers have been killed; 0% means that none of the leaf hoppers have been killed.

[3] = system: caterpillars of the owlet moth Spodoptera frugiperda; assay: Spodoptera Test; assay type: in vivo; conditions: 168 h, 0.1% active compound, after 7 days, dipped cabbage leaves, read-out: kill
Description: as §1, §2, §3
Cabbage leaves (Brassica oleracea) are treated by being dipped into the active compound preparation of the desired concentration and are populated with caterpillars of the owlet moth Spodoptera frugiperda) while the leaves are still moist.
(§4) After the desired period of time, the kill in % is determined. 100% means that all the caterpillars have been killed, 0% means that none of the caterpillars have been killed.

[4] = system: caterpillars of the diamond back moth (Plutella xylostella); assay: Plutella Test; assay type: in vivo; conditions: 168 h, 0.1% active compound, after 7 days, dipped cabbage leaves, read-out: kill
Description: as §1, §2, §3
Cabbage leaves (Brassica oleracea) are treated by being dipped into the active compound preparation of the desired concentration and are populated with caterpillars of the diamond back moth (Plutella xylostella) while the leaves are still moist.
as §4

[5] = system: Boophilus Microplus Resistent/SP-Resistent Parkhurst Strain; assay: Test with Boophilus Microplus Resistent/SP-Resistent Parkhurst Strain; assay type: in vivo; conditions: 200 μg/animal; injected into the abdomen; adult females which have sucked themselves full
Description: Test with Boophilus Microplus Resistent/SP-Resistent Parkhurst Strain
Adult females which have sucked themselves full […]
The test is carried out in 5 replications. I μl of the solutions is injected into the abdomen, and the animals are transferred into dishes and kept in an air-conditioned room. The activity is determined via the inhibition of oviposition. 100% means that no tick has deposited eggs.

[6] = system: mustard beetle larvae (Phaedon cochleariae); assay: Phaedon Larvae Test; assay type: in vivo; conditions: 168 h, 0.1% active compound, after 7 days, dipped cabbage leaves, read-out: kill
Description: as §1, §2, §3
Cabbage leaves (Brassica oleracea) are treated by being dipped into the active compound preparation of the desired concentration and are populated with mustard beetle larvae (Phaedon cochleariae) while the leaves are still moist.
After the desired period of time, the kill in % is determined. 100% means that all the beetle larvae have been killed, 0% means that none of the beetle larvae have been killed.

[7] = log p: n-octanol/water partition coefficient determined by reverse phase HPLC analysis using H2O/CH3CN; assay type: physicochemical
Text: *log p: logarithm to base ten of the noctanol/water partition coefficient
determined by reverse phase HPLC analysis using H2 O/CH3 CN.

[8] = system: all larval stages of Lucilia cuprina (OP resistent); assay: Test with Fly Larvae/Development-Inhibitory Action; assay type: in vivo; conditions: 1000 ppm active compound, on horse meat, larvicidal effect after 48 h
Description: Test with Fly Larvae/Development-Inhibitory Action
all larval stages of Lucilia cuprina (OP resistent)
[pupae and adults (without contact with the active
Solvent: 35 parts by weight of ethylene glycol monomethyl ether
35 parts by weight of nonylphenol polyglycol ether
To produce a suitable preparation, 3 parts by weight of the active compound are mixed with 7 parts by weight of the abovementioned solvent-emulsifier mixture, and the resulting emulsion concentrate is diluted with water to the concentration desired in each case.
For each concentration, 30 to 50 larvae are introduced into a test tube which contains horse meat (1 cm^3). 500 μl of the dilution to be tested are pipetted onto this horse meat. The test tubes are placed in plastic beakers whose bottom is covered with sea sand, and kept in an air-conditioned room (26° C.±1.5° C., 70%±10% relative humidity). The activity is examined (larvicidal action) after 24 hours and 48 hours. After emergence of the larvae (about 72 h), the test tubes are removed and perforated plastic lids are fitted onto the beakers. After 1.5 times the development time (hatching of control flies), the hatched flies and the pupae/cocoons are counted.
The activity criterion is the incidence of death in the treated larvae after 48 h (larvicidal effect), or the inhibition of hatching of adults from pupae or the inhibition of pupae formation. The criterion for the in vitro activity of a substance is the inhibition of the development of the […], or a development standstill before the adult stage. 100% larvicidal action means that all the larvae have been killed after 48 hours. 100% development-inhibitory action means that no adult flies have hatched.

Meloidogyne incognita = assay: Critical Concentration Test/Nematodes; assay type: in vivo; conditions: 20 ppm active compound in soil; after four weeks; lettuce roots (root galls)
Description: Critical Concentration Test/Nematodes
Solvent: 4 parts by weight of acetone
as §2
To produce a suitable preparation of active compound, 1 part by weight of active compound is mixed with the stated amount of solvent, the stated amount of emulsifier is added and the concentrate is diluted with water to the desired concentration.
The active compound preparation is intimately mixed with soil which is heavily infested with the test nematodes. The active compound concentration in the preparation is immaterial, only the amount of active compound per unit volume of soil, which is given in ppm (=mg/l), matters. The treated soil is transferred into pots, lettuce seeds are sown, and the pots are kept at a greenhouse temperature of 25° C.
After four weeks, the lettuce roots are checked for infestation with nematodes (root galls) and the efficacy of the active compound in % is determined. The efficacy is 100% when infestation is avoided completely and 0% when the infestation level is just as high as in the control plants in untreated, but equally infested, soil.

## Cc1ccc(-c2noc(CC(F)=C(F)F)n2)cc1 [Example 1, 3-(4-methylphenyl)-5-(2,3,3-trifluoroprop-2-enyl)-1,2,4-oxadiazole]
[1]
  mortality at 0.1 % strength: 90%
[2]
  mortality at 0.1 % strength: 100%
[3]
  mortality at 0.1 % strength: ≥ 85%
[4]
  mortality at 0.1 % strength: ≥ 90%
[5]
  activity (inhibition of oviposition): 100%
[6]
  mortality at 0.1 % strength: 100%

## FC(F)=C(F)Cc1nnc(-c2ccc(Cl)cc2)o1 [Example 2, 2-(4-chlorophenyl)-5-(2,3,3-trifluoroprop-2-enyl)-1,3-4-oxadiazole]
[1]
  mortality at 0.1 % strength: 80%
[2]
  mortality at 0.1 % strength: 100%
[4]
  mortality at 0.1 % strength: ≥ 90%
[6]
  mortality at 0.1 % strength: 100%

## FC(F)=C(F)Cc1nc(-c2c(Cl)cccc2Cl)no1 [Example 3]
[2]; 0.1% active compound, after 6 days, dipped rice seedlings
  mortality at 0.1 % strength: 100%
[3]
  mortality at 0.1 % strength: ≥ 85%
[7]; pH 2
  chromatographic logP: 3.44
[4]
  mortality at 0.1 % strength: ≥ 90%
[8]
  inhibition at 1000 ppm: 100%

## FC(F)=C(F)Cc1nc(CCl)no1 [Example 4]
[7]; pH not stated
  chromatographic logP: 2.08

## FC(F)=C(F)Cc1nc(-c2ccccc2Cl)no1 [Example 5]
[7]; pH 2
  chromatographic logP: 3.3
[4]
  mortality at 0.1 % strength: ≥ 90%
[8]
  inhibition at 1000 ppm: 100%

## FC(F)=C(F)Cc1nc(-c2cc(Cl)cc(Cl)c2)no1 [Example 6]
[7]; pH 2
  chromatographic logP: 4.72

## FC(F)=C(F)Cc1nc(-c2ccccc2)no1 [Example 7]
[3]
  mortality at 0.1 % strength: ≥ 85%
[7]; pH 2
  chromatographic logP: 3.2
[4]
  mortality at 0.1 % strength: ≥ 90%
[6]
  mortality at 0.1 % strength: 100%
[8]
  inhibition at 1000 ppm: 100%

## COc1ccc(-c2nnc(CC(F)=C(F)F)o2)cc1 [Example 8]
[7]; pH 7.5
  chromatographic logP: 2.46
[4]
  mortality at 0.1 % strength: ≥ 90%

## FC(F)=C(F)Cc1nnc(-c2ccco2)o1 [Example 9]
[7]; pH 7.5
  chromatographic logP: 1.89

## FC(F)=C(F)Cc1nnc(-c2cccs2)o1 [Example 10]
Meloidogyne incognita
  efficacy: 100%
[7]; pH 7.5
  chromatographic logP: 2.19

Reference: patent publication US6001829A, “Fluoropropenyl oxadiazoles and the use thereof as pest control agents” (Bayer Aktiengesellschaft, priority 1995, dated 1999)
